Laboratory results: PubChem BioAssay AID1645848
Converted amounts (≈) assume the structure as drawn.

Details: buffer; pH 7.4; 6.0 h; 150.0 µM

solubility kinetic [µg/mL] | Compound
< 1 | Fc1cc(Nc2nc(-c3ccncc3)nc3ccccc23)ccc1-c1cccc(C(F)(F)F)c1
28.4 (≈ 85.3 µM) | NC(=O)C1CCN(c2nc(-c3cccc([N+](=O)[O-])c3)cs2)CC1
< 1 | CCC(Sc1nc2ccccc2c2nc(CCc3c(C)n[nH]c3C)nn12)C(=O)Nc1ccc(F)cc1 (stereo not drawn)
< 1 | Fc1ccc(Nc2nc(-c3ccnc(N4CCCCC4)c3)nc3ccccc23)cc1F
2.64 (≈ 6.2 µM) | CCn1c(=O)cc(OCC(=O)N2CCN(c3cccc(Cl)c3)CC2)c2ccccc21
< 1 | COc1ccccc1N1CCN(c2ccc3cc(S(=O)(=O)N4CCCCC4)ccc3n2)CC1
< 1 | O=C(c1csnn1)N1CCC2(CCCN(C(c3ccccc3)c3ccccc3)C2)CC1
22.4 (≈ 57.5 µM) | COc1ccc(Nc2cc3c(nc2OC)nc(CCc2ccccc2)n3C)cn1
> 70 | COc1cc2c(Nc3ccc(Br)cc3F)ncnc2cc1OCC1CCN(C)CC1
< 1 | Cc1cccc(S(=O)(=O)c2cn(Cc3ccccc3)c3cc(N4CCCC(C)C4)c(F)cc3c2=O)c1 (stereo not drawn)
> 60 | Cc1cnc(-c2ccccc2C2COC2)nc1NCc1ccc(-c2cccnc2)cc1
> 48 | COc1ccc(CNC(=O)CCCn2nc(C)c3c(C)n(-c4ccc(C)cc4)nc3c2=O)cc1OC
> 84 | NS(=O)(=O)c1ccc(Cc2c(-c3cccc(-c4ccccc4)c3)nn(-c3nc(C(=O)O)cs3)c2CC2CC2)cc1
2.85 (≈ 7.13 µM) | CC(=O)c1ccc(N2CCN(S(=O)(=O)c3ccc4c(c3)CC(=O)N4)CC2)cc1
2.43 (≈ 7.8 µM) | c1cc(-c2cc(-c3ccncc3)c3cncn3c2)c2[nH]ncc2c1
40 (≈ 115 µM) | Cc1cc(N2CCN(c3ccccc3)CC2)nc(-n2nc(C)cc2C)n1
< 1 | Fc1ccc(Nc2nc(-c3ccccc3)cc(-c3ccncc3)n2)cc1F
27.5 (≈ 82.7 µM) | O=C(c1ccc2ccccc2c1)N1CCN(c2ccc(O)cc2)CC1
> 65 | CCn1cc(C(=O)O)c(=O)c2cnc(N3CCN(C(=S)Nc4ccccc4)CC3)nc21
3.67 (≈ 10.9 µM) | NC(=O)C1CCN(c2nc(-c3ccc4ccccc4c3)cs2)CC1
31.1 (≈ 86 µM) | COc1ccc(CN2CCNc3cc(Nc4ccccc4)ncc3C2)cn1

The remaining lines, values behind:

Compound | solubility kinetic [µg/mL]
CCOC(=O)c1nnc(N[S+](=O)([O-])c2ccc(NC(=O)Cc3ccc(Cl)c(Cl)c3)cc2)s1 | > 76
O=[S+]([O-])(Nc1nccs1)c1ccc(NCc2cccc3c2NCC3)cc1 | > 57
COc1ccc(NC(=O)c2c(C)cccc2C)cc1[S+](=O)([O-])N(C)C | 32.8 (≈ 90.4 µM)
CCCS(=O)(=O)c1nc(NC2CC2)cc(-c2ccc3c(ccn3C3CC(C)(C)NC(C)(C)C3)c2)n1 | < 1
COc1cc(O)c([C@H](CC(=O)N2CC(C)CC(C)C2)c2ccc3c(c2)OCO3)c(OC)c1 (stereo partly drawn) | 2.51 (≈ 5.69 µM)
CC(C)c1cc(C(=O)N2CC[C@@H](NC(=O)C3CC3)C2)n[nH]1 | > 43
COc1ccc(-c2nc3c(c(SCC(=O)Nc4ccc(C(=O)O)cc4)n2)Cc2ccccc2O3)cc1 | 1.45 (≈ 2.9 µM)
COc1ccc2c(ccn2CCC(=O)Nc2ccc3c(c2)C(=O)N2CCC[C@H]2C(=O)N3)c1 | > 43
CC[C@@](C)(Nc1ccnc(-c2c[nH]c3ncccc23)n1)C(=O)NCC(F)(F)F | > 58
Cc1ccc(S(=O)(=O)Nc2ccccc2C(=O)Nc2nc(-c3ccccc3)c(Br)s2)cc1 | < 1
O=C(NC1CCCCC1)N1Cc2[nH]cnc2C[C@H]1c1nc(-c2cccc([N+](=O)[O-])c2)no1 | 14.2 (≈ 32.5 µM)
C1CCc2nc3c(nc2C1)CCCC3 | > 28
CC(=O)c1c(C)[nH]c(C(=O)Nc2cccc([S+](=O)([O-])Nc3ccc(C#N)cc3)c2)c1C | 36.8 (≈ 84.3 µM)
NC(=O)C1CCN(c2ncc(Br)cn2)CC1 | > 42
CC1=C[C@@H](CN2C(=O)C(C)=C(C)C2=O)[C@H](C(C)C)C[C@H]1Cc1nc2c(C)cccc2[nH]1 | 3.65 (≈ 8.7 µM)
Fc1ccc(Nc2nccc(-c3ccncc3)n2)cc1F | 2.48 (≈ 8.71 µM)
Cc1cc(NS(=O)(=O)c2ccc(NC(=O)Cc3ccc(F)c(Cl)c3)cc2)no1 | > 63
